These results are taken from patent publication US7019019B2, “Matriptase inhibitors and methods of use” (Dendreon Corporation, priority 2002, dated 2006).

As usually defined, the pKi is the Ki on a negative log10 scale, so that one unit is a factor of ten.

Type in all cases: biochemical
One test concerns the target T1, Matriptase (Homo sapiens, UniProt Q9Y5Y6).
T1 sequence (Q9Y5Y6 1-855 C731S): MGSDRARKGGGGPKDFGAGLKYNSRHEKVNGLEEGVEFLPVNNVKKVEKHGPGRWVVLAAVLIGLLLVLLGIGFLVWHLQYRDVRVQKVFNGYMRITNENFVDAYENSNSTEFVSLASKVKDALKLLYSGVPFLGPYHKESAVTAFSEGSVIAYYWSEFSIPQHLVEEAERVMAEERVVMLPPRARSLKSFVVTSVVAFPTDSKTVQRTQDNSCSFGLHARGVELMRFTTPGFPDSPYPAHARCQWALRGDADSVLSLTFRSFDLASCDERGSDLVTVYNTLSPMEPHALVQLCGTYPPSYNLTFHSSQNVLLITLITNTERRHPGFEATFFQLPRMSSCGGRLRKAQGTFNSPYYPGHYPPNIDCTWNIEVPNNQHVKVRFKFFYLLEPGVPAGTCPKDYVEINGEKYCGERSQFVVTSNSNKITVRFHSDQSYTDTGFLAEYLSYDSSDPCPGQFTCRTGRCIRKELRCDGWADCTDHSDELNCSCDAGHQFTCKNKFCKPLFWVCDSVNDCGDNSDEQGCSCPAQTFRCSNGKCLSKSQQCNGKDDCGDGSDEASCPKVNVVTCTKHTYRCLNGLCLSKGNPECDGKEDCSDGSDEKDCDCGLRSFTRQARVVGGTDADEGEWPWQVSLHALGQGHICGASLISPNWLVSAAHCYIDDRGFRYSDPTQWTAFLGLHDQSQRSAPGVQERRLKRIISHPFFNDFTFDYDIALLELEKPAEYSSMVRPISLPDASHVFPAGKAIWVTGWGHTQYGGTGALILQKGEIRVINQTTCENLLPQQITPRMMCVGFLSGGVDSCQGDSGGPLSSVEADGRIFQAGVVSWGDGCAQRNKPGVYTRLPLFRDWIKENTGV
The test is described as follows: Amidolytic assay for inhibition of serine protease activity of matriptase or MTSP1.

Test [1] has as its target T2, (Homo sapiens, UniProt Q9UL52).
T2 sequence (Q9UL52 192-423): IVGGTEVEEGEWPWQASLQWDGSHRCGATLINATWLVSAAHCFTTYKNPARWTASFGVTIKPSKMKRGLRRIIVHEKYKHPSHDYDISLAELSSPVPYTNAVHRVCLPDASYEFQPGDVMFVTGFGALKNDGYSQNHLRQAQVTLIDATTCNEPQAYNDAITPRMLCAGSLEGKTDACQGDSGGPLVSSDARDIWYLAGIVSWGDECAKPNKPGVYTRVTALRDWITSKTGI
The test is described as follows: In vitro enzyme assay for specificity: Endothelin 1.

For the next test, the target named is T3, Factor Xa (Homo sapiens, UniProt P00742).
T3 construct: purchased Enzyme Research Laboratories, Inc. (South Bend, Ind.)
Kind of test: Factor Xa chromogenic assay (S-2765). The note with it: read-out: Ki FXa. Here is the method:
(§1) The ability of compounds to act as a selective inhibitor of matriptase activity was assessed by determining the concentration of test-compound which inhibited the activity of matriptase by 50%, (IC50) as described in Example A, and comparing IC50 value for matriptase to that determined for all or some of the following serine proteases: thrombin, recombinant tissue plasminogen activator (rt-PA), plasmin, activated protein C, chymotrypsin, factor Xa and trypsin.
(§2) The buffer used for all assays was HBSA (10 mM HEPES, pH 7.5, 150 mM sodium chloride, 0.1% bovine serum albumin).
The assay for IC50 determinations was conducted by combining in appropriate wells of a Corning microtiter plate, 50 microliters of HBSA, 50 microliters of the test compound at a specified concentration (covering a broad concentration range) diluted in HBSA (or HBSA alone for V0 (uninhibited velocity) measurement), and 50 microliters of the enzyme diluted in HBSA. Following a 30 minute incubation at ambient temperature, 50 microliters of the substrate at the concentrations specified below were added to the wells, yielding a final total volume of 200 microliters. The initial velocity of chromogenic substrate hydrolysis was measured by the change in absorbance at 405 nm using a Thermo Max® Kinetic Microplate Reader over a 5 minute period in which less than 5% of the added substrate was utilized. […]
Factor Xa catalytic activity was determined using the chromogenic substrate S-2765 (N-benzyloxycarbonyl-D-arginine-L-glycine-L-arginine-p-nitro aniline), obtained from DiaPharma Group (Franklin, Ohio). All substrates were reconstituted in deionized water prior to use. […] Purified human Factor X was obtained from Enzyme Research Laboratories, Inc. (South Bend, Ind.) and Factor Xa (FXa) was activated and prepared from it as described [Bock, P. E., Craig, P. A., Olson, S. T., and Singh, P. Arch. Biochem. Biophys. 273:375-388 (1989)]. The enzyme was diluted into HBSA prior to assay in which the final concentration was 0.25 nM.

Test [2] concerns the target T4, (Homo sapiens, UniProt Q9BYE2).
T4 sequence (Q9BYE2 326-586): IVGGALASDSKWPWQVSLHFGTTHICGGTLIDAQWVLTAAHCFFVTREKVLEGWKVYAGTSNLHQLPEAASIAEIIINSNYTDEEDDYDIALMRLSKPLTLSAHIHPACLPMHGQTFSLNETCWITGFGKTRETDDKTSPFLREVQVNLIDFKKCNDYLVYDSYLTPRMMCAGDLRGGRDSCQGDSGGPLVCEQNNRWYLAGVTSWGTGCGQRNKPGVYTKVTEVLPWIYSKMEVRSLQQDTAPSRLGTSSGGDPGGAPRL
Kind of test: In vitro enzyme assay for specificity: Endothelin 2.

For a further test, the target named is α-thrombin (Homo sapiens, UniProt P00734). The test is described as follows: Thrombin (fIIa) chromogenic assay (Pefachrome t-PA). On the procedure:
as §1, §2
(§3) The assay for IC50 determinations was conducted by combining in appropriate wells of a Corning microtiter plate, 50 microliters of HBSA, 50 microliters of the test compound at a specified concentration (covering a broad concentration range) diluted in HBSA (or HBSA alone for V0 (uninhibited velocity) measurement), and 50 microliters of the enzyme diluted in HBSA. Following a 30 minute incubation at ambient temperature, 50 microliters of the substrate at the concentrations specified below were added to the wells, yielding a final total volume of 200 microliters. The initial velocity of chromogenic substrate hydrolysis was measured by the change in absorbance at 405 nm using a Thermo Max® Kinetic Microplate Reader over a 5 minute period in which less than 5% of the added substrate was utilized. The concentration of added inhibitor which caused a 50% decrease in the initial rate of hydrolysis was defined as the IC50 value.
Enzyme activity was determined using the chromogenic substrate, Pefachrome t-PA (CH3SO2-D-hexahydrotyrosine-glycyl-L-Arginine-p-nitroaniline, obtained from Pentapharm Ltd.). The substrate was reconstituted in deionized water prior to use.
The initial velocity of Pefachrome t-PA hydrolysis was measured by the change in absorbance at 405 nm using a Thermo Max® Kinetic Microplate Reader over a 5 minute period in which less than 5% of the added substrate was utilized. The concentration of added inhibitor which caused a 50% decrease in the initial rate of hydrolysis was defined as the IC50 value.

Another test has as its target plasmin (Homo sapiens, UniProt P00747). The test is described as follows: Plasmin chromogenic assay (S-2366). On the procedure: as §1, §2, §3
Plasmin catalytic activity was determined using the chromogenic substrate, S-2366 [L-pyroglutamyl-L-prolyl-L-arginine-p-nitroaniline hydrochloride], which was obtained from DiaPharma group. The substrate was made up in deionized water followed by dilution in HBSA prior to the assay in which the final concentration was 300 micromolar (about 2.5-times Km). Purified human plasmin was obtained from Enzyme Research Laboratories, Inc. The enzyme was diluted into HBSA prior to assay in which the final concentration was 1.0 nM.

pKi: −log10 of the molar value.

T3 sequence (P00742 235-488 limits assumed): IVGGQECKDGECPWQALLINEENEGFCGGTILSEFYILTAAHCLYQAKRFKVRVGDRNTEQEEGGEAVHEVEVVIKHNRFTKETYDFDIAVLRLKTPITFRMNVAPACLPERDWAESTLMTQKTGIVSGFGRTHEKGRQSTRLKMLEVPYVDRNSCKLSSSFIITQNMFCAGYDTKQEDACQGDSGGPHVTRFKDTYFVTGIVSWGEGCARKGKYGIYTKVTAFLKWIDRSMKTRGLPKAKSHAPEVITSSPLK
T3 sequence (P00742 41-179 partner limits assumed): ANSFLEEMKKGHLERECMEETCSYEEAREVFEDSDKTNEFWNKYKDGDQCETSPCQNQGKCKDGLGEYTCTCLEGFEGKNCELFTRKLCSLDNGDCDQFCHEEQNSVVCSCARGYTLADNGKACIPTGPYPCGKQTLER
plasmin, sequence (P00747 581-810 limits assumed): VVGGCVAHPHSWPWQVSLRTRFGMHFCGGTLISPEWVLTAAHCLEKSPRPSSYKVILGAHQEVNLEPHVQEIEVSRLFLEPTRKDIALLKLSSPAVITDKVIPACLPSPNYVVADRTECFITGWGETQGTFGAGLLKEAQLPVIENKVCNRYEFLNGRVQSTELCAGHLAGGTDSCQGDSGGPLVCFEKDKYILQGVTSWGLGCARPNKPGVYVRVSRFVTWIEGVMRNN
plasmin, sequence (P00747 97-580 partner limits assumed): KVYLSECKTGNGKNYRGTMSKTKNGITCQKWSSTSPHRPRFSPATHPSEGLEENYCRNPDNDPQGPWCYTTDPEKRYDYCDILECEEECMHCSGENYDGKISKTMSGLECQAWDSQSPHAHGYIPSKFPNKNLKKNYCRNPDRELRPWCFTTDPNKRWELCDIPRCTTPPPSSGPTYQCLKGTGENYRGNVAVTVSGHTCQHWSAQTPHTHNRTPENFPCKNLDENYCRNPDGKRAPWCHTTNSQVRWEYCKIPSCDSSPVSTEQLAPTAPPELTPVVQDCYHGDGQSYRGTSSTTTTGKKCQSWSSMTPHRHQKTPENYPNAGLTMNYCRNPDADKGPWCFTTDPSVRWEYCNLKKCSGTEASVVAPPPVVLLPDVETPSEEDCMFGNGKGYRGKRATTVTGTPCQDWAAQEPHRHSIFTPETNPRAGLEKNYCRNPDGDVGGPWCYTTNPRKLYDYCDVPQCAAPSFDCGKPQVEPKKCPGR

For the molecule “3(3-Amdn)Bn-3(Methsulfone)hydantoin-G-(2-Amdn)thiazole-2-MeAm”, the negative logarithm of the Ki (pKi) at Matriptase is 6.60 to 7.00; in test [1], under 5.60; at Factor Xa, under 5.60; in test [2], under 5.60; at α-thrombin it was under 5.60.
Molecule `COC(=O)CCC(N)(Cc1cccc(C(=N)N)c1)C(=O)NCC(=O)NCc1ccc(C(=N)N)s1` (stereo not drawn) [(Me)E(alpha-(3-Amdn)Bn)-G-(2-Amdn)thiophene-5MeAm] showed a negative logarithm of the Ki (pKi) on Matriptase of 6.60 to 7.00.
On to `N=C(N)c1cccc(CC(N)(CCC(=O)O)C(=O)NCC(=O)NCc2ccc(C(=N)N)s2)c1` (stereo not drawn) [E(alpha-(3-Amdn)Bn)-G-(2-Amdn)thiophene-5MeAm], for which the negative-log Ki (pKi) at Matriptase was 6.60 to 7.00; on plasmin, 5.60 to 6.30; on Factor Xa, 5.60 to 6.30; at α-thrombin it was 5.60 to 6.30.
For `COC(=O)N[C@](CCC(=O)OC(C)(C)C)(Cc1cccc(C(=N)N)c1)C(=O)NCC(=O)NCc1ccc(C(=N)N)s1` [MeOCO(t-Bu)E(R)(alpha-(3-Amdn)Bn)-G-(2-Amdn)thiophene-5-MeAm], the pKi at Matriptase was over 7.00; at plasmin, under 5.60; on Factor Xa it was 5.60 to 6.30; on α-thrombin it was under 5.60.
As for `COC(=O)CC[C@](Cc1cccc(C(=N)N)c1)(NC(=O)OC)C(=O)NCC(=O)NCc1nc(C(=N)N)cs1` [MeOCO-(Me)E(α-(3-Amdn)Bn)-G-(4-Amdn)thiazole-2-MeAm], the pKi on Matriptase is 6.30 to 6.60; at Factor Xa it was under 5.60; on α-thrombin, under 5.60.
Consider `COC(=O)NC(CCC(=O)OC(C)(C)C)(Cc1cccc(C(=N)N)c1)C(=O)NCC(=O)NCc1ccc(C(=N)N)cc1` (stereo not drawn) [MeOCO-E(O-t-Butyl)(alpha-(3-Amdn)Bn)-G-(4-Amdn)BnAm], for which the pKi on Matriptase was 6.60 to 7.00; on Factor Xa, under 5.60; at α-thrombin, 6.30 to 6.60.
As for `COC(=O)NC(CCS(C)(=O)=O)(Cc1ccnc(N)c1)C(=O)NCC(=O)NCc1ccc(C(=N)N)s1` (stereo not drawn) [N-MeOCO-(α-(3-Am)4-pyrMe)M(O2)-G-(2-Amdn)thiophene-5-MeAm], the pKi on Matriptase is 6.60 to 7.00; at Factor Xa it was 6.30 to 6.60; on α-thrombin it was under 5.60.
In the case of `N=C(N)c1cccc(C[C@@]2(C(=O)NCC(=O)NCc3ccc(C(=N)N)s3)CCC(=O)N2)c1` [α-(3-Amdn)BnPyro-G-(2-Amdn)thiophene-5-MeAm], the pKi is over 7.00 at Matriptase, 5.60 to 6.30 at plasmin, under 5.60 on Factor Xa and 5.60 to 6.30 on α-thrombin.
As to “alpha-(3-amidinoBn)MeSO2-G-(2-Amdn)thiophene-5-MeAm”, the pKi on Matriptase was over 7.00; in test [1] it was under 5.60; on plasmin, under 5.60; on Factor Xa, 5.60 to 6.30.
For “iBoc-(Me)E(R)(alpha-(3-Amdn)Bn)-G-(2-Amdn)thiophene-5MeAm”, the pKi on Matriptase and on α-thrombin was 6.30 to 6.60 throughout.
